These results are taken from patent US20160039852A1, “THERAPEUTIC USES OF BISPHOSPHONATES” (THE UNIVERSITY OF SHEFFIELD, priority 2013, published 2016).

Each structure is given as a SMILES string. Like-named read-outs stand apart in the source and are kept apart here.

For test [1], the system named is human mesenchymal stem cells (hMSC). Briefly: Immunostaining of γH2AX DNA damage foci (double stranded breaks) in hMSC. Format: cell-based. The conditions noted are these: for number of γH2AX DNA damage foci after irradiation: 1Gy irradiation, compound at 1 μM, foci at 4 h (Zol also 12, 24 h) versus PBS; for effect of Zol on DNA damage after addition of prenylation intermediate: 1Gy, Zol plus FOH or GGOH (33 μM). The protocol:
DNA damage was induced by exposing hMSC to ^137Cs Gamma source. Cells were washed with PBS and fixed with 4% Para-formaldehyde for […]. Cells were then washed with PBS permeabilized with 0.5% Triton-X (Sigma, UK) for […] and blocked with 5% normal goat serum (DAKO, Glostrup, Denmark) in PBS for 1 hr. This was followed by incubation with primary antibody, anti-phospho histone H2AX (Ser139) (Millipore, Massachusetts, USA) used at 1:800 in 5% normal goat serum, overnight at 4° C. Cells were then washed in PBS and incubated in secondary Anti mouse IgG Fluorescein Isothiocyanate (FITC) conjugated (Insight Biotechnology, Santa Cruz, USA) at 1:200 in PBS for 1 hour at room temperature. The cover-slips were mounted on slides with mounting media (VectaShield) containing 4',6-diamidino-2-phenylindole (DAPI) to stain the nuclei. […] Cells were viewed using in an Inverted Zeiss LSM 510 NLO microscope equipped with Argon (Ar) laser (488 nm) 30 mW to image the fluorescent marker FITC and UV lamp to image DAPI stained nuclei. Five to seven fields consisting of 25 cells in total were randomly selected from a tile scan (20×) and individual cells viewed at 63× were then scored for γH2AX DNA damage foci using ImageJ 1.45 software (http://rsbweb.nih.gov/ij/). One of the factors affecting cellular lifespan is accumulation of DNA damage.

The next test has as its target T1, FPP synthase (Homo sapiens, UniProt P14324).
T1 sequence (P14324 1-419): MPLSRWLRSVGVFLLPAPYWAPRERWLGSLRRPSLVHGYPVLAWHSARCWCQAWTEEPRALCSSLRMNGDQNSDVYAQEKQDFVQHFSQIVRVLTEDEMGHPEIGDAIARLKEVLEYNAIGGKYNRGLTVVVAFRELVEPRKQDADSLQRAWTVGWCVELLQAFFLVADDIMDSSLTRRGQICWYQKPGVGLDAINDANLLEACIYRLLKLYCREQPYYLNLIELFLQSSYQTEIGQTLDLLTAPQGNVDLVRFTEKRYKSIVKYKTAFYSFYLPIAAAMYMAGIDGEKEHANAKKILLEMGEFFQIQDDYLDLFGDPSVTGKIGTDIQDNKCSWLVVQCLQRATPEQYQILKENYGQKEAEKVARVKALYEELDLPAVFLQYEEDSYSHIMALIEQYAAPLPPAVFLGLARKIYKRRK
Description: Prenyl synthase assay (FPP synthase activity). It counts as biochemical. The protocol:
FPP synthase activity was measured by the method of Reed and Rilling (Reed, B. C. & Rilling, H. C. (1976) Biochemistry 15, 3739-3745) with modifications. Assays were set up such that the final volume was 100 ul. The assay conditions were 50 mM Tris pH7.7, 2 mM MgCl2, 0.5 mM TCEP, 20 μg/ml BSA. For FPP synthase assays the final enzyme concentration was 10 nM. All substrates were at 10 μM final concentration each substrate, all reactions were with IPP (14C-IPP, 400Kq/μMol American Radiochem. Corp). For FPP synthase GPP was the second substrate. Bisphosphonate was added as 1/10th volume of a 10× stock solution and allowed to preincubate for 10 minutes with the enzyme in a volume of 80 ul and the reaction started by the addition of 20 ul of the combined substrate. The reaction was allowed to proceed for 4 minutes at 37° C. before being terminated by the addition of 0.2 ml of conc. HCI/Methanol (1:4) and incubated for a further 10 mins at 37° C. The reaction mixtures were then extracted with 0.4 ml of immiscible scintillation fluid (Microscint E, Perkin Elmer) to separate reaction products from unused substrate and were counted directly with a microbeta scintillation counter (Perkin Elmer).

In test [2] the test system is zebrafish embryo caudal fin. Description: Zebrafish tail amputation and regeneration following irradiation. Format: in vivo, Zebrafish (Danio Rerio H). The conditions noted are these: irradiated embryos, Zol plus FOH or GGOH. The protocol: Embryos from wild-type Zebrafish (Danio Rerio H) AB strain were collected at 16 cell stage (˜1.5 hours post fertilisation (hpf)) and grown in E3 Medium at 28° C. Embryos were treated with Zoledronate (1 μM) and/or FOH, GGOH at 24 hpf. DNA damage was induced by exposure to ^137Cs Gamma source at 48 hpf and after irradiation the embryo tails were amputated and the embryos were then incubated at 28° C. for a further 12 hrs in the presence of the chemicals. At the end of this period the chemicals were washed off and the embryos were incubated in fresh medium with no chemicals. The embryos were grown up to 120 hpf, following which they were fixed in 4% PFA overnight and then mounted in 100% glycerol. The tail lengths of embryos were measured taking the anal region as starting reference point and the end of the fin fold as the ending point of measurement.

Test [3] has as its system human mesenchymal stem cells (hMSC). Description: hMSC growth kinetics, cumulative population doublings with time in culture. Format: cell-based. The conditions noted are these: for population doublings after which cultures stopped proliferating: hMSC, from the start of the treatment, PBS cultures senesced after 21-25 PDs, n=3; for hMSC life span / time of proliferation in culture: versus PBS control.

In the case of `O=P(O)(O)C(F)(Cc1cnc2ccccn12)P(=O)(O)O` [Compound C, 1-fluoro-2-(imidazo-[1,2-a]pyridine-3-yl)-ethyl-bisphosphonic acid], in test [1] (Compound C at increasing concentrations, 4 hours after irradiation), the “DNA repair (γH2AX DNA damage foci), concentration dependence” value is “enhances DNA repair in a dose dependent manner”. In addition, the “affinity for / inhibitory potency on FPP synthase” value (“affinity for / inhibitory potency” for short) on FPP synthase was “high inhibitory potency”.
As for `O=P(O)(O)C1CC2CCCNC2C1P(=O)(O)O` (stereo not shown) [Compound B, 2-Azabicyclo-[4.3.0]nonane-8,9-diphosphonic acid], in test [1], the “number of γH2AX DNA damage foci after irradiation” value (from here on “number of γH2AX DNA damage foci”) is listed as “not”. Moreover, the entries for the “affinity for / inhibitory potency” value at FPP synthase and on FPP synthase (listed as compound B) were “low affinity” and “low”, respectively.
Regarding `CC(C)=CCC/C(C)=C/CC/C(C)=C/CC/C(C)=C/CO` [GGOH, geranylgeraniol], the “effect of Zol on DNA damage after addition of prenylation intermediate” value in test [1] is given as “reversed”. Moreover, in test [2], the “Zol-mediated fin repair process after addition of FOH or GGOH” value is recorded as “abrogated”.
On to `O=P(O)(O)C(O)(Cc1cccnc1)P(=O)(O)O` [Risedronate], for which, in test [1], the “number of γH2AX DNA damage foci” value is listed as “enhance repair of DNA damage”. Moreover, in test [3], the “population doublings after which cultures stopped proliferating” value is recorded as 29-34 PDs and the “hMSC life span / time of proliferation in culture” value is reported as “extend hMSC lifespan”.
As to `CC(C)=CCC/C(C)=C/CC/C(C)=C/CO` [FOH, Trans, trans farnesol], the “effect of Zol on DNA damage after addition of prenylation intermediate” value in test [1] was “reversed”. Also, the “Zol-mediated fin repair process after addition of FOH or GGOH” value in test [2] is given as “abrogated”.
As to `NCCCC(O)(P(=O)(O)O)P(=O)(O)O` [Alendronate], the “number of γH2AX DNA damage foci” value in test [1] is recorded as “enhance repair of DNA damage”. In test [3], the “population doublings after which cultures stopped proliferating” value is listed as 27-30 PDs and the “hMSC life span / time of proliferation in culture” value was “extend hMSC lifespan”.
As for `O=P(O)(O)C1CC2CCCNC2C1P(=O)(O)O` (stereo not shown) [Compound A, 2-Azabicyclo-[4.3.0]nonane-8,9-diphosphonic acid], the “number of γH2AX DNA damage foci” value in test [1] is given as “significant decrease”; in test [1] (listed as compound A), “significant reduction in DNA damage”. The “affinity for / inhibitory potency” value is “high affinity” at FPP synthase and “high” at FPP synthase (listed as compound A).
